Data as given in PubChem BioAssay (NCI).
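1) Cells in 96-well plates. 2) Compound, 48 h, 5 concentrations. 3) Linear interpolation between surrounding doses. 4) Unreached endpoint = highest concentration. GI50: concentration for 50% inhibition of growth. TGI: concentration producing complete growth inhibition.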

Assays:
Assay in all cases: growth of human tumour cells (NCI), 48 h
HCC-2998 colon = tested on: HCC-2998 colon
CCRF-CEM leukemia = tested on: CCRF-CEM leukemia
CAKI-1 renal = tested on: CAKI-1 renal
SNB-75 CNS = tested on: SNB-75 CNS
UO-31 renal = tested on: UO-31 renal
OVCAR-5 ovarian = tested on: OVCAR-5 ovarian
RPMI-8226 leukemia = tested on: RPMI-8226 leukemia
ACHN renal = tested on: ACHN renal
UACC-257 melanoma = tested on: UACC-257 melanoma
HOP-62 NSCLC = tested on: HOP-62 NSCLC
A549 NSCLC = tested on: A549 NSCLC
SF-295 CNS = tested on: SF-295 CNS
OVCAR-4 ovarian = tested on: OVCAR-4 ovarian
UACC-62 melanoma = tested on: UACC-62 melanoma
K-562 leukemia = tested on: K-562 leukemia
NCI-H460 lung = tested on: NCI-H460 lung
U251 CNS = tested on: U251 CNS
MDA-MB-435 = tested on: MDA-MB-435
SF-539 CNS = tested on: SF-539 CNS
TK-10 renal = tested on: TK-10 renal
NCI/ADR-RES ovarian = tested on: NCI/ADR-RES ovarian
M14 melanoma = tested on: M14 melanoma
786-0 renal = tested on: 786-0 renal
HT29 colon = tested on: HT29 colon
MDA-MB-231 breast = tested on: MDA-MB-231 breast
IGROV1 ovarian = tested on: IGROV1 ovarian
SR leukemia = tested on: SR leukemia
BT-549 breast = tested on: BT-549 breast
MALME-3M melanoma = tested on: MALME-3M melanoma
HCT-116 colon = tested on: HCT-116 colon
HOP-92 NSCLC = tested on: HOP-92 NSCLC
RXF 393 renal = tested on: RXF 393 renal
DU-145 prostate = tested on: DU-145 prostate
MOLT-4 leukemia = tested on: MOLT-4 leukemia
HS 578T breast = tested on: HS 578T breast
SK-MEL-5 melanoma = tested on: SK-MEL-5 melanoma
LOX IMVI melanoma = tested on: LOX IMVI melanoma
SN12C renal = tested on: SN12C renal
HCT-15 colon = tested on: HCT-15 colon
KM12 colon = tested on: KM12 colon
COLO 205 colon = tested on: COLO 205 colon
SK-MEL-2 melanoma = tested on: SK-MEL-2 melanoma
HL-60(TB) leukemia = tested on: HL-60(TB) leukemia
MCF7 breast = tested on: MCF7 breast
NCI-H522 lung = tested on: NCI-H522 lung
SK-MEL-28 melanoma = tested on: SK-MEL-28 melanoma
SNB-19 CNS = tested on: SNB-19 CNS
SK-OV-3 ovarian = tested on: SK-OV-3 ovarian
NCI-H226 lung = tested on: NCI-H226 lung
T-47D breast = tested on: T-47D breast
SF-268 CNS = tested on: SF-268 CNS
A498 renal = tested on: A498 renal
SW-620 colon = tested on: SW-620 colon
OVCAR-3 ovarian = tested on: OVCAR-3 ovarian
OVCAR-8 ovarian = tested on: OVCAR-8 ovarian
NCI-H23 lung = tested on: NCI-H23 lung
PC-3 prostate = tested on: PC-3 prostate

In the case of `Cn1c(-c2ccncc2)c(-c2ccc(F)cc2)c2ncccc21`, the GI50 (HCC-2998 colon) is reported as greater than 25 µM, the TGI (HCC-2998 colon) is reported as greater than 25 µM and the GI50 (CCRF-CEM leukemia) is reported as greater than 25 µM. It also gave a TGI (CCRF-CEM leukemia) greater than 25 µM, a GI50 (CAKI-1 renal) greater than 25 µM and a TGI (CAKI-1 renal) greater than 25 µM. It also gave a GI50 (SNB-75 CNS) greater than 25 µM, a TGI (SNB-75 CNS) greater than 25 µM and a GI50 (UO-31 renal) of 10.8 µM. The TGI (UO-31 renal) was greater than 25 µM, the GI50 (OVCAR-5 ovarian) was greater than 25 µM and the TGI (OVCAR-5 ovarian) was greater than 25 µM. The GI50 (RPMI-8226 leukemia) was greater than 25 µM, the TGI (RPMI-8226 leukemia) was greater than 25 µM and the GI50 (ACHN renal) was 16.4 µM. It also gave a TGI (ACHN renal) greater than 25 µM, a GI50 (UACC-257 melanoma) greater than 25 µM and a TGI (UACC-257 melanoma) greater than 25 µM. The GI50 (HOP-62 NSCLC) was greater than 25 µM, the TGI (HOP-62 NSCLC) was greater than 25 µM and the GI50 (A549 NSCLC) was greater than 25 µM. The TGI (A549 NSCLC) was greater than 25 µM, the GI50 (SF-295 CNS) was greater than 25 µM and the TGI (SF-295 CNS) was greater than 25 µM. The GI50 (OVCAR-4 ovarian) was greater than 25 µM, the TGI (OVCAR-4 ovarian) was greater than 25 µM and the GI50 (UACC-62 melanoma) was greater than 25 µM. For the same molecule, the TGI (UACC-62 melanoma) was greater than 25 µM, the GI50 (K-562 leukemia) was greater than 25 µM and the TGI (K-562 leukemia) was greater than 25 µM. The GI50 (NCI-H460 lung) was greater than 25 µM, the TGI (NCI-H460 lung) was greater than 25 µM and the GI50 (U251 CNS) was greater than 25 µM. It also gave a TGI (U251 CNS) greater than 25 µM, a GI50 (MDA-MB-435) greater than 25 µM and a TGI (MDA-MB-435) greater than 25 µM. It also gave a GI50 (SF-539 CNS) greater than 25 µM, a TGI (SF-539 CNS) greater than 25 µM and a GI50 (TK-10 renal) of 16.4 µM. The TGI (TK-10 renal) was greater than 25 µM, the GI50 (NCI/ADR-RES ovarian) was greater than 25 µM and the TGI (NCI/ADR-RES ovarian) was greater than 25 µM. For the same molecule, the GI50 (M14 melanoma) was greater than 25 µM, the TGI (M14 melanoma) was greater than 25 µM and the GI50 (786-0 renal) was greater than 25 µM. It also gave a TGI (786-0 renal) greater than 25 µM, a GI50 (HT29 colon) greater than 25 µM and a TGI (HT29 colon) greater than 25 µM. It also gave a GI50 (MDA-MB-231 breast) greater than 25 µM, a TGI (MDA-MB-231 breast) greater than 25 µM and a GI50 (IGROV1 ovarian) greater than 23.1 µM. The TGI (IGROV1 ovarian) was greater than 25 µM, the GI50 (SR leukemia) was greater than 25 µM and the TGI (SR leukemia) was greater than 25 µM. The GI50 (BT-549 breast) was greater than 25 µM, the TGI (BT-549 breast) was greater than 25 µM and the GI50 (MALME-3M melanoma) was greater than 25 µM. The TGI (MALME-3M melanoma) was greater than 25 µM, the GI50 (HCT-116 colon) was greater than 25 µM and the TGI (HCT-116 colon) was greater than 25 µM. The GI50 (HOP-92 NSCLC) was 7.39 µM, the TGI (HOP-92 NSCLC) was greater than 25 µM and the GI50 (RXF 393 renal) was greater than 25 µM. For the same molecule, the TGI (RXF 393 renal) was greater than 25 µM, the GI50 (DU-145 prostate) was greater than 25 µM and the TGI (DU-145 prostate) was greater than 25 µM. For the same molecule, the GI50 (MOLT-4 leukemia) was greater than 25 µM, the TGI (MOLT-4 leukemia) was greater than 25 µM and the GI50 (HS 578T breast) was greater than 25 µM. The TGI (HS 578T breast) was greater than 25 µM, the GI50 (SK-MEL-5 melanoma) was greater than 25 µM and the TGI (SK-MEL-5 melanoma) was greater than 25 µM. For the same molecule, the GI50 (LOX IMVI melanoma) was greater than 25 µM, the TGI (LOX IMVI melanoma) was greater than 25 µM and the GI50 (SN12C renal) was greater than 25 µM. The TGI (SN12C renal) was greater than 25 µM, the GI50 (HCT-15 colon) was greater than 25 µM and the TGI (HCT-15 colon) was greater than 25 µM. It also gave a GI50 (KM12 colon) greater than 25 µM, a TGI (KM12 colon) greater than 25 µM and a GI50 (COLO 205 colon) greater than 25 µM. It also gave a TGI (COLO 205 colon) greater than 25 µM, a GI50 (SK-MEL-2 melanoma) greater than 25 µM and a TGI (SK-MEL-2 melanoma) greater than 25 µM. It also gave a GI50 (HL-60(TB) leukemia) greater than 25 µM, a TGI (HL-60(TB) leukemia) greater than 25 µM and a GI50 (MCF7 breast) greater than 25 µM. For the same molecule, the TGI (MCF7 breast) was greater than 25 µM, the GI50 (NCI-H522 lung) was greater than 25 µM and the TGI (NCI-H522 lung) was greater than 25 µM. The GI50 (SK-MEL-28 melanoma) was greater than 25 µM, the TGI (SK-MEL-28 melanoma) was greater than 25 µM and the GI50 (SNB-19 CNS) was greater than 25 µM. It also gave a TGI (SNB-19 CNS) greater than 25 µM, a GI50 (SK-OV-3 ovarian) greater than 25 µM and a TGI (SK-OV-3 ovarian) greater than 25 µM. The GI50 (NCI-H226 lung) was greater than 25 µM, the TGI (NCI-H226 lung) was greater than 25 µM and the GI50 (T-47D breast) was greater than 25 µM. It also gave a TGI (T-47D breast) greater than 25 µM, a GI50 (SF-268 CNS) greater than 25 µM and a TGI (SF-268 CNS) greater than 25 µM. For the same molecule, the GI50 (A498 renal) was greater than 14.4 µM, the TGI (A498 renal) was greater than 25 µM and the GI50 (SW-620 colon) was greater than 25 µM. For the same molecule, the TGI (SW-620 colon) was greater than 25 µM, the GI50 (OVCAR-3 ovarian) was greater than 25 µM and the TGI (OVCAR-3 ovarian) was greater than 25 µM. The GI50 (OVCAR-8 ovarian) was greater than 25 µM, the TGI (OVCAR-8 ovarian) was greater than 25 µM and the GI50 (NCI-H23 lung) was greater than 25 µM. For the same molecule, the TGI (NCI-H23 lung) was greater than 25 µM, the GI50 (PC-3 prostate) was greater than 25 µM and the TGI (PC-3 prostate) was greater than 25 µM.
